According to patent US20260184721A2, “FUSED RING COMPOUND, CONJUGATE THEREOF AND USE THEREOF” (Keymed Biosciences (Chengdu) Co., Ltd., priority 2022, published 2026):

How the values were obtained:
NCI-N87 tumor cells = assay: In vitro proliferation inhibitory activity of compounds of Formula (GH) on NCI-N87 tumor cells (CCK8); type: cell-based, human; settings: Homo sapiens, NCI-N87, […], read-out: IC50 for inhibiting proliferation of NCI-N87 cells in vitro
Description: The objective of this experiment is to detect the in vitro killing activity of the compound of Formula (GH) disclosed in the present invention on NCI-N87 tumor cells (human gastric cancer cells, Cell Resource Center, Institute of Basic Medicine, Chinese Academy of Medical Sciences, Catalog No. 3111C0001CCC000481). The cells were treated with different concentrations of the compound in vitro, and after 6 days of culture, the number of viable cells was detected using CCK8 (Cell Counting Kit-8, Catalog No. TS547) reagents, and the in vitro activity of the test compound was evaluated according to the IC50 value.
• (1) Cell culture: NCI-N87 cells were cultured in the RPMI 1640 medium containing 2% FBS (Shanghai BasalMedia Technologies Co., Ltd., Catalog No. L210KJ). • (2) Cell preparation: NCI-N87 cells in the logarithmic growth phase were taken, washed once with PBS (phosphate buffered saline, Shanghai BasalMedia Technologies Co., Ltd., Catalog No. E211004), added with 1 mL of trypsin (0.25% Trypsin-EDTA (1×), Shanghai BasalMedia Technologies Co., Ltd., Catalog No. A121002) to allow digestion for 2 to 3 minutes. After the cells were completely digested, 10 mL of the cell culture medium was added to wash off and obtain the digested cells, centrifugation was performed at 300 times gravitational acceleration (g) for 5 min, the supernatant was discarded, then 10 mL of PBS was added to wash the cells once, centrifugation was performed at 300 times gravitational acceleration (g) for 5 minutes, the supernatant was discarded, and 10 mL of the cell culture medium containing 2% FBS was added to resuspend the cells to prepare a single cell suspension. • (3) Cell plating: The NCI-N87 single cell suspension was mixed, the density of live cells was adjusted to 3×10^4 cells/mL with 2% FBS cell culture medium, the cell suspension after density adjustment was mixed well, and added to a 96-well cell culture plate at 100 μL/well. Only 200 μL of PBS was added to each of the peripheral wells of the 96-well plate. The plate was incubated in an incubator for 24 hours (37° C., 5% CO2). • (4) Preparation of sample to be tested:
The sample to be tested was diluted to 3200 nM with cell culture medium containing 2% FBS, then 300 μL of the sample was added to the first well of a 96-well U-bottomed plate with a sample concentration of 3200 nM; and 210 μL of cell culture medium containing 2% FBS was added to each well of the second to tenth columns. 70 μL of the sample was taken from the first column and added to the 210 μL cell culture medium in the second column and mixed well, 70 μL was taken and added to the third column, and so on to the ninth column. • (5) Sample loading operation: 100 μL of the sample to be tested with different concentrations was added to the culture plate, two replicate wells were set for each sample. The culture plate was incubated in an incubator for 6 days (37° C., 5% CO2). • (6) Color development operation: The 96-well cell culture plate was taken out, the supernatant of the culture medium was removed by tapping, 100 μL of 10% CCK8 (prepared with RPMI 1640 basal culture medium, without FBS) solution was added to each well, and incubation was performed in an incubator for 2 hours. • (7) Plate reading operation: The 96-well cell culture plate was taken out, placed in an ELISA reader (SpectraMax i3X), and A450 was determined by the ELISA reader. • (8) Data analysis: Microsoft Excel and Graphpad Prism 5 were used to process and analyze the data.

SK-BR-3 tumor cells = assay: In vitro proliferation inhibitory activity of compounds of Formula (GH) on SK-BR-3 tumor cells (CCK8); type: cell-based; settings: Homo sapiens, SK-BR-3, 72 h, 3 days of culture, read-out: IC50 for inhibiting proliferation of SK-BR-3 cells in vitro
Description: The objective of this experiment is to detect the in vitro killing activity of the compound of Formula (GH) of the present disclosure on SK-BR-3 tumor cells (human breast cancer cells, Wuhan Procell, Catalog No. CL-0211). The cells were treated with different concentrations of the compound in vitro. After 3 days of culture, the number of viable cells was detected using CCK8 (Cell Counting Kit-8, Catalog No. TS547) reagents, and the in vitro activity of the test compound was evaluated according to the IC50 value.
Taking the test method of in vitro killing activity on SK-BR-3 cells as an example, the following test was performed. […] After the cells were completely digested, 10 mL of cell culture medium containing 2% FBS was added to wash out the digested cells, centrifugation was performed at 300 g for 5 min, the supernatant was discarded, and then 10 to 20 mL of cell culture medium containing 2% FBS was added to resuspend the cells to prepare a single cell suspension. • (3) Cell plating: The SK-BR-3 single cell suspension was mixed well, the viable cell density was adjusted to 6×10^4 cells/mL with the cell culture medium containing 2% FBS, the cell suspension after density adjustment was mixed well, and added to a 96-well cell culture plate at 100 μL/well. Only 200 μL of PBS was added to the peripheral wells of the 96-well plate. The culture plate was incubated in an incubator for 24 hours (37° C., 5% CO2). • (4) Compound preparation: The compound was dissolved in DMSO (dimethyl sulfoxide, SIGMA) to prepare a 2 mM stock solution.
The starting concentrations of small molecule compounds and Dxd were both 600 nM, and the preparation method was as follows.
Then, 315 μL of different samples to be tested were added to the first column of a 96-well U-bottomed drug distribution plate, and the sample concentration was 1200 nM; 210 μL of the cell culture medium containing 2% FBS was added to each well of the second to tenth columns. 105 μL of the sample was taken from the first column and added to the 210 μL cell culture medium in the second column and mixed well, and 105 μL was taken and added to the third column, and so on to the tenth column. • (5) Sample loading operation: 100 μL of the sample to be tested of different concentrations was added to the culture plate, and two replicate wells were set for each sample. The culture plate was incubated in an incubator for 3 days (37° C., 5% CO2). • (6) Color development operation: The 96-well cell culture plate was taken out, the cell culture supernatant was removed by tapping, 100 μL of the RPMI 1640 basal medium (without FBS) containing 10% CCK8 was added, and then it was incubated in an incubator for about 1.5 hours (37° C., 5% CO2). • (7) Plate reading operation: The 96-well cell culture plate was taken out, placed in an ELISA reader (MD SpectraMax i3X), and A450 was determined by the ELISA reader. • (8) Data analysis: Microsoft Excel and Graphpad Prism 5 were used to process and analyze the data.

In the case of Cc1c(F)cc2nc3c(c4c2c1CC[C@@H]4NC(=O)[C@@H](O)C1CC1)Cn1c-3cc2c(c1=O)COC(=O)[C@]2(O)CC1CC1 [Compound 4-A, (S)-2-Cyclopropyl-N-((1S,9S)-9-(cyclopropylmethyl)-5-fluoro-9-hydroxy-4-methyl-10,13-dioxo-2,3,9,10,13,15-hexahydro-1H,12H-benzo[de]pyrano[3′,4′:6,7]indolizino[1,2-b]quinolin-1-yl)-2-hydroxyacetamide], the IC50 (NCI-N87 tumor cells) is reported as 2.4 nM and the IC50 (SK-BR-3 tumor cells) is reported as 6.42 nM.

Work on Cc1c(F)cc2nc3c(c4c2c1CC[C@H]4NC(=O)[C@H](O)C1CC1)Cn1c-3cc2c(c1=O)COC(=O)[C@]2(O)CC1CC1 [Compound 5-B, (R)-2-Cyclopropyl-N-((1R,9S)-9-(cyclopropylmethyl)-5-fluoro-9-hydroxy-4-methyl-10,13-dioxo-2,3,9,10,13,15-hexahydro-1H,12H-benzo[de]pyrano[3′,4′:6,7]indolizino[1,2-b]quinolin-1-yl)-2-hydroxyacetamide] yielded an IC50 (NCI-N87 tumor cells) of 2.96 nM and an IC50 (SK-BR-3 tumor cells) of 4.92 nM.

In the case of CC[C@@]1(O)C(=O)OCc2c1cc1n(c2=O)Cc2c-1nc1cc(F)c3c(c1c2CNC(=O)[C@H](C)O)CCC3 [Compound 25, (S)-N-(((S)-8-Ethyl-4-fluoro-8-hydroxy-9,12-dioxo-2,3,8,9,12,14-hexahydro-1H,11H-cyclopenta[f]pyrano[3′,4′:6,7]indolizino[1,2-b]quinolin-15-yl)methyl)-2-hydroxypropanamide], the IC50 (NCI-N87 tumor cells) is reported as 5.46 nM and the IC50 (SK-BR-3 tumor cells) is reported as 5.41 nM.
